Source: patent US20250228847A1, “COMBINATION THERAPY FOR TREATING CANCER” (AstraZeneca AB, priority 2022, published 2025)

What was measured:
C4-2 cells = assay: Cell proliferation / viability assay (Sytox Green, AC50), 7 days treatment; format: cell-based; settings: C4-2 cell line (mCRPC, AR+, ARV7), single agent
Experimental: (§1) The following cell lines were originally obtained from ATCC:
(§2) Cell line identification was validated using the CellCheck assay (IDEXX Bioanalytics, Westbrook, ME, USA). All cell lines were validated free of virus Mycoplasma contamination using the MycoSEQ assay (Thermo Fisher Scientific, Waltham, MA, USA) or STAT-Myco assay (IDEXX Bioanalytics). All cell lines were grown RPMI-1640 growth media (Corning 17-105-CV) supplemented with 10% fetal bovine serum (FBS) or, when indicated, 10% charcoal stripped FBS (ThermoFisher Scientific, 12676029) and 2 mM glutamine.
(§3) Cells in 384-well or 96-well plates were dosed using an Echo 555 (LabCyte, San Jose, CA, USA) or using the HP D300e Digital Dispenser (HP Life Science Dispensing), respectively. Live cell count pre- and post-treatment (7 days after treatment) was determined using CellTiter-Glo as per manufacturer's instructions (Promega, Madison, WI, USA; G7570).
(§4) Cell viability was determined with the Sytox Green assay as described in Davies 2012 and the AC50 calculated. The HSA (Highest Single Agent) Synergy Score was calculated according to Bernenbaum 1989.

LnCAP cells = assay: as above; format: cell-based; settings: Homo sapiens, LnCAP cell line (mHSPC, AR+ T877A), single agent
Experimental: as §1, §2, §3, §4

Structure (SMILES)	AC50 (C4-2 cells)	AC50 (LnCAP cells)
CCc1cc2ncc(CN3CCN(c4ccc(C(=O)NC)nc4)CC3)cc2[nH]c1=O [AZD5305, 5-{4-[(7-ethyl-6-oxo-5,6-dihydro-1,5-naphthyridin-3-yl)methyl]piperazin-1-yl}-N-methylpyridine-2-carboxamide]	> 1000 nM	> 1 µM
C[C@]12CC[C@H](O)CC1=CC[C@@H]1[C@@H]2CC[C@]2(C)C(c3cccnc3)=CC[C@@H]12 [Abiraterone, abiraterone]	2810 nM	4.94 µM
